Here are results for four compounds from US6908742B2, “Methods and kits for the detection of endotoxin” (priority 1996, dated 2005).

Experiment [1] addresses T1, A1 adenosine receptors in membranes from feline PAECs (Felis catus, UniProt A0ABI7XJE9).
T1 sequence (A0ABI7XJE9 1-326): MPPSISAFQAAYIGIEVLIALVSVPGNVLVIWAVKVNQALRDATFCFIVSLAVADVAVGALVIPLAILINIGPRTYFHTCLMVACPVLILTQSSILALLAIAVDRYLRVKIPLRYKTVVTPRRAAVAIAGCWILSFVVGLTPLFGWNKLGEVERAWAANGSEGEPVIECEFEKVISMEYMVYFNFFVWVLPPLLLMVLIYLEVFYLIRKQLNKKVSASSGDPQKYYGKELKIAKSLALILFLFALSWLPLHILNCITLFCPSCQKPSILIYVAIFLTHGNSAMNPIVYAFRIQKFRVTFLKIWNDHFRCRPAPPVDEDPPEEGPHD
The experiment can be described thus: Competition experiments for [3H] DPCPX in feline PAEC membranes. The experiment is classed as binding. Particulars: cultured feline PAEC membranes. The method, then: (§1) Feline PAECs were grown to confluency in […] culture plates. The confluent cells were washed twice with KSP buffer (10 mM KH2P04, 50 mM sucrose). The cells were scraped and suspended in KSP buffer at a concentration of 1×10^6 cells/ml in two conical centrifuge tubes. The tubes were centrifuged at 1000 g×2 minutes and the buffer discarded. The cells from one tube were then suspended in deoxygenated buffer (bubbled with N2 gas for 10 minutes) and bubbled with N2 gas for 30 seconds to insure hypoxic conditions. These cells were then incubated for 2 hours in this hypoxic buffer. Cells from the other tube were suspended in normal KSP buffer and incubated at 37° C. for 2 hours. At the end of incubation, cells were homogenized immediately for membrane preparation.
For membrane preparation, the cells were homogenized by sonication and centrifuged at 1000× g for 10 minutes. The supernatant was centrifuged again at 30,000× g for 30 minutes. […]
Radioligand binding data are analyzed with the use of Graph Pad Prism by nonlinear regression analysis equipped with a statistical package. Data are expressed as mean±SEM. Hill plots and Schild plots are determined for each species of LPS in competition experiments and are used as standard curves for the determinations of the concentration of endotoxin in samples with unknown concentrations of endotoxin.

The target in another experiment is T2, A1 adenosine receptor (Homo sapiens, UniProt P30542).
T2 construct: host or cells: tissues (not specified)
T2 sequence (P30542 1-326): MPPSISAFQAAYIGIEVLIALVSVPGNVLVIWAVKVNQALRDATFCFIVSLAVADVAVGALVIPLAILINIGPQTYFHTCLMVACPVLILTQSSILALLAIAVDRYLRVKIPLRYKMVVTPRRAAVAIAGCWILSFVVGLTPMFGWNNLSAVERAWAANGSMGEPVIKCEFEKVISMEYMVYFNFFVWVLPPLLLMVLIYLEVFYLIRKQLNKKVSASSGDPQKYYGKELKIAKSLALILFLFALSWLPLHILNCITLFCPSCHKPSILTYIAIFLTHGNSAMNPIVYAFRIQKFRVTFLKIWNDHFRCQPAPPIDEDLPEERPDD
As to conditions: in tissues; cited from earlier work.

Experiment [2] concerns the target T3, A1 adenosine receptors in hamster brain membranes (Mesocricetus auratus, UniProt A0A1U8BVR4).
T3 sequence (A0A1U8BVR4 1-326): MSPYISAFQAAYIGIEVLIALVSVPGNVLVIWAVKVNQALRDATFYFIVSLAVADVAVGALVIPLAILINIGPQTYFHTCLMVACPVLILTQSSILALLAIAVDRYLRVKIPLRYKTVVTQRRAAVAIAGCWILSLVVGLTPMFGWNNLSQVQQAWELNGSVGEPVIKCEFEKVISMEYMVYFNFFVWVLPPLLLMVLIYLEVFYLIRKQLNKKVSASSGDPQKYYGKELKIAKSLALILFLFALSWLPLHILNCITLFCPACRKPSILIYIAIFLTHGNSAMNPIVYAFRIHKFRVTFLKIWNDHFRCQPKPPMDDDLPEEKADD
Kind of experiment: Saturation experiments with [3H] DPCPX or [3H] CCPA in hamster brain membranes. Format: binding. The method, then: (§2) Frozen sheep brain (Pel Freeze, Rodgers, Ark.) or hamster brain (Harlan Bioproducts, Indianapolis, Ind.) was thawed and homogenized in 10 volumes of cold (4° C.), 0.32 M sucrose. The homogenate was centrifuged at 1,000× g for 10 minutes to remove the nuclear fraction. The supernatant was centrifuged at 30,000× g for 30 minutes. The resulting pellet was resuspended in 10 ml water and left on ice for 30 minutes to obtain synaptosomal membranes. The suspension was then centrifuged at 48,000× g for 10 minutes and the membranes resuspended in 50 mM Tris-HCl (pH 7.4) at a concentration of 8 mg protein/ml, frozen in liquid nitrogen, and stored at −20° C. until binding assay.
(§3) Binding of [^3H] DPCPX or [^3H] CCPA to membranes was carried out in an assay volume of 500 μl Tris-HCl, pH 7.4, MgCl2 (10 mM) (for membranes from feline PAECs only) containing [^3H] DPCPX or [^3H] CCPA (0.01 to 4 nM). Nonspecific binding of [^3H] DPCPX or [^3H] CCPA was determined in the presence of R-PIA (100 μM) or theophylline (1 mM), respectively. To remove endogenous adenosine, adenosine deaminase was present in all binding assays at a concentration of 0.2 U/ml. Incubations were performed for 2 hours at room temperature for sheep and hamster brain membranes and 4° C. for feline PAEC membranes. Incubations were terminated by rapid removal of the incubation buffer by filtration through Whatman GF/B filters (Whatman Inc., Clifton, N.J.). The membrane bound radioactivity was measured by scintillation counting of the filter paper. To determine Kd, Bmax, and nonspecific binding in sheep and hamster brain and feline PAEC membranes, experiments are performed in duplicate.

For experiment [3], the target named is T4, A1 adenosine receptors in sheep brain membranes (Ovis aries, UniProt A0ACI6R3B7).
T4 sequence (A0ACI6R3B7 1-326): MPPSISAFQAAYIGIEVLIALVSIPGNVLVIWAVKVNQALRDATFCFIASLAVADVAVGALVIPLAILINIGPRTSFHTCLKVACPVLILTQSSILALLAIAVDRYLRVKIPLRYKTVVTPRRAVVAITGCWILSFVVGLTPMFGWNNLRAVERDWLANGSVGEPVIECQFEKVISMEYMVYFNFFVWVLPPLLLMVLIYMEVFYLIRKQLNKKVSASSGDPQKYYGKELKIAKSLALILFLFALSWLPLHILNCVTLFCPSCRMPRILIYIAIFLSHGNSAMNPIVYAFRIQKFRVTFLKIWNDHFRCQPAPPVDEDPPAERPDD
Kind of experiment: Saturation experiments with [3H] DPCPX or [3H] CCPA in sheep brain membranes. The experiment is classed as binding. The method, then: as §2, §3

Experiment [4] has as its target T1, A1 adenosine receptors in membranes from feline PAECs. Kind of experiment: Saturation experiments with [3H] DPCPX in feline PAEC membranes. Format: binding. The method, then: as §1
For membrane preparation, the cells were homogenized by sonication and centrifuged at 1000× g for 10 minutes. The supernatant was centrifuged again at 30,000× g for 30 minutes. The membrane fraction was reconstituted with Tris buffer for radioligand binding studies.
as §3

`Nc1nc(Nc2ccccc2)nc2c1ncn2[C@@H]1O[C@H](CO)[C@@H](O)[C@H]1O` [CV 1808, 2-phenylaminoadenosine]: in experiment [1], the “displacement of bound [3H] DPCPX” value is listed as “did not displace”.
Regarding `CCCn1c(=O)c2[nH]c(C3CCCC3)nc2n(CCC)c1=O` [DPCPX, 1,3-dipropyl-8-cyclopentylxanthine], the nonspecific binding result at A1 adenosine receptor is “less than 1%”.
Take `OC[C@H]1O[C@@H](n2cnc3c(NC4CCCC4)nc(Cl)nc32)[C@H](O)[C@@H]1O` [[^3H] CCPA, 2-chloro-N^6-cyclopentyladenosine]: the “density of high affinity A1 adenosine receptors” value in experiment [2] (hamster brain, determined using [3H] CCPA) was 1630 ± 60 fmol/mg; in experiment [3] (sheep brain, determined using [3H] CCPA), 1920 ± 250 fmol/mg.
By Kd is commonly meant the free concentration of one partner at which half of the binding sites on the other are occupied at equilibrium, for simple one-to-one binding. Low values mean higher affinity, high ones lower affinity. As for `CCCn1c(=O)c2[nH]c(C3CCCC3)nc2n(CCC)c1=O` [[^3H]-DPCPX, [^3H]-1,3-dipropyl-8-cyclopentyladenosine xanthine], the Kd was found to be 0.32 nM in experiment [2] (hamster brain membranes), 0.37 nM in experiment [3] (sheep brain membranes), 0.26 nM in experiment [4] (hypoxia) and 0.33 nM in experiment [4] (normoxia). Besides, the Bmax in experiment [2] (hamster brain membranes, [3H]-DPCPX saturation) is given as 3733 fmoles/mg protein; in experiment [3] (sheep brain membranes, [3H]-DPCPX saturation) it was 2251 fmoles/mg protein; in experiment [4] (hypoxia), 1458 fmoles/mg protein; in experiment [4] (normoxia), 1064 fmoles/mg protein.
